From PubChem BioAssay AID1845200 (Molecular Pharmacology Branch, DTP, NCI, 2023)
Calls of active or inactive are those of the source. Rule for the calls: active = viability on the fitted dose curve at most 10% of control; inactive = the rest.

System: ASPS-1 complex tumor spheroids, viability
Assay: Anticancer human tumor ASPS-1 cell line growth inhibition;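 note: spheroids exposed to agents for 7 days after 3 days of growth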;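 for viability, T/C: 100% = DMSO vehicle treated spheroids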
Conditions: for IC50: curve of first compound; for viability, T/C: stronger effect = lower value
From the text: Multicellular complex tumor spheroid response to DNA repair inhibitors in combination with DNA-damaging drugs
This study explores the anticancer activities of DNA-damaging drugs and inhibitors of DNA damage repair, both as single agents and in combinations. Complex tumor spheroids comprised of malignant cells, endothelial cells and mesenchymal stem cells served as an in vitro model for human solid tumors. This model system incorporates physiologically relevant features and patient-derived or established malignant cell lines with clinically relevant genetic alterations from many tumor types. Twenty-six patient-derived or established malignant cell lines were evaluated representing sarcoma, melanoma, small cell lung cancer (SCLC), non-small cell lung cancer (NSCLC), as well as bladder, ovarian and pancreatic cancers. The concentration ranges selected for each drug and investigational agent were based upon clinically achievable concentrations if the clinical Cmax of the agent was known.
Compounds. The drugs and compounds olaparib (NSC753686), talazoparib (NSC767125), berzosertib (NSC777718), elimusertib (NSC800525), nedisertib (NSC802822), VX-984 (NSC792969), AZD-1390 (NSC803789), temozolomide (NSC362856), topotecan (NSC609699), trabectedin (NSC813783), staurosporine (NSC755774), and gemcitabine (NSC613327) were obtained from the National Cancer Institute (NCI) Developmental Therapeutics Program Chemical Repository. The FDA-approved anticancer drug set is available from the Developmental Therapeutics Program at https://dtp.cancer.gov/organization/dscb/obtaining/available_plates.htm. […] The stock solutions were prepared in dimethyl sulfoxide (DMSO, Sigma-Aldrich, St. Louis, MO, cat. D2650) at 400-fold the tested concentration and stored at -70 degrees C. Prior to their use, the stock solutions were diluted in fresh medium and the final DMSO concentration in the assay was 0.25% (v/v). All drugs and investigational agents were tested over a range starting from a high concentration at or near the clinical Cmax and decreasing in half-log increments. If the clinical Cmax for an agent had not been determined, the highest concentration tested was 10 microM.
Cell Lines. The patient-derived cancer cell (PDC) lines: 156681-154-R-J1-PDC, 283228-195-R-J1-PDC, 287954-098-R-J1-PDC, 292921-168-R-J2-PDC, 349418-098-R-PDC, 425362-245-T-J1-PDC, 556581-035-R-J1-PDC, and BL0293-F563-PDC were received from the NCI Patient-Derived Models Repository (PDMR, https://pdmr.cancer.gov). The established cell lines HS-SY-2 (RRID:CVCL_8719), MPNST, and SYO-1 (RRID:CVCL_7146) were obtained from the Sloan Kettering Institute. The alveolar soft parts sarcoma cell line ASPS-1 (RRID:CVCL_S738) was established at the NCI and grown from internal seed stocks. The following established cell lines were purchased from the American Type Culture Collection (ATCC, Manassas, VA): G-401 (ATCC, cat. CRL-1441, RRID:CVCL_0270), SW982 (ATCC, cat. HTB-93, RRID:CVCL_1734), VA-ES-BJ (ATCC, cat. CRL-2138, RRID:CVCL_1785), NCI-H719 (ATCC, cat. CRL-5837, RRID:CVCL_1582), NCI-H196 (ATCC, cat. CRL-5823, RRID:CVCL_1509), NCI-H841 (ATCC, cat. CRL-5845, RRID:CVCL_1595), NCI-H1618 (ATCC, cat. CRL-5879, RRID:CVCL_1480), NCI-H1876 (ATCC, cat. CRL-5902, RRID:CVCL_1503), DMS 114 (ATCC, cat. CRL-2066; RRID:CVCL_1174), NCI-H211 (ATCC, cat. CRL-5824; RRID:CVCL_1529), and SW 1271 (ATCC, cat. CRL-2177, RRID:CVCL_1716). The small cell lung cancer cell line COR-L88 was purchased from Sigma-Aldrich (cat. 92031917-1VL, RRID:CVCL_1141). The non-small cell lung cancer cell lines NCI-H226 (RRID:CVCL_1544) and NCI-H322M (RRID:CVCL_1557) were established at the NCI and grown from internal seed stocks. Pooled donor human umbilical vein endothelial cells (HUVEC, Lonza, cat. CC-2519) and human mesenchymal stem cells (hMSC, Lonza, cat. PT-2501) were purchased from Lonza (Walkersville, MD).
Cell Culture. All cells were maintained in an incubator at 37 degrees C and 5% CO2 with 95% humidity. […]

[1] = second compound 0.003 µM, first compound 0.00949 µM
[2] = second compound 0.003 µM, first compound 0.03 µM
[3] = second compound 0.003 µM, first compound 0.0949 µM
[4] = second compound 0.003 µM, first compound 0.3 µM
[5] = second compound 0.003 µM, first compound 0.949 µM
[6] = second compound 0.003 µM, first compound 3 µM
[7] = second compound 0.00949 µM, first compound 0.00949 µM
[8] = second compound 0.00949 µM, first compound 0.03 µM
[9] = second compound 0.00949 µM, first compound 0.0949 µM
[10] = second compound 0.00949 µM, first compound 0.3 µM
[11] = second compound 0.00949 µM, first compound 0.949 µM
[12] = second compound 0.00949 µM, first compound 3 µM
[13] = second compound 0.03 µM, first compound 0.00949 µM
[14] = second compound 0.03 µM, first compound 0.03 µM
[15] = second compound 0.03 µM, first compound 0.0949 µM
[16] = second compound 0.03 µM, first compound 0.3 µM
[17] = second compound 0.03 µM, first compound 0.949 µM
[18] = second compound 0.03 µM, first compound 3 µM
[19] = second compound 0.0949 µM, first compound 0.00949 µM
[20] = second compound 0.0949 µM, first compound 0.03 µM
[21] = second compound 0.0949 µM, first compound 0.0949 µM
[22] = second compound 0.0949 µM, first compound 0.3 µM
[23] = second compound 0.0949 µM, first compound 0.949 µM
[24] = second compound 0.0949 µM, first compound 3 µM
[25] = second compound 0.3 µM, first compound 0.00949 µM
[26] = second compound 0.3 µM, first compound 0.03 µM
[27] = second compound 0.3 µM, first compound 0.0949 µM
[28] = second compound 0.3 µM, first compound 0.3 µM
[29] = second compound 0.3 µM, first compound 0.949 µM
[30] = second compound 0.3 µM, first compound 3 µM

Row | Compound | IC50 (second compound 0.003 µM) [nM] | IC50 (second compound 0.00949 µM) [nM] | IC50 (second compound 0.03 µM) [nM] | IC50 (second compound 0.0949 µM) [nM] | IC50 (second compound 0.3 µM) [nM] | viability, T/C [1] [%] | viability, T/C [2] [%] | viability, T/C [3] [%] | viability, T/C [4] [%] | viability, T/C [5] [%] | viability, T/C [6] [%] | viability, T/C [7] [%] | viability, T/C [9] [%] | viability, T/C [10] [%] | viability, T/C [11] [%] | viability, T/C [12] [%] | viability, T/C [13] [%] | viability, T/C [14] [%] | viability, T/C [15] [%] | viability, T/C [16] [%] | other results
1 | CNCc1ccc(-c2cc(-c3nc(-c4ccc(S(=O)(=O)C(C)C)cc4)cnc3N)on2)cc1 + CC[C@@]1(O)C(=O)OCc2c1cc1n(c2=O)Cc2cc3c(CN(C)C)c(O)ccc3nc2-1 | 478 | 412 | 256 | 19.6 | < 9.49 | 102 | 103 | 98.8 | 60.8 | 30.8 | 5.94 | 104 | 107 | 54.5 | 30.2 | 5.23 | 97.1 | 105 | 90.5 | 41.9 | viability, T/C [8]: 108%; viability, T/C [17]: 25.3%; viability, T/C [18]: 10.3%; viability, T/C [19]: 54.1%; viability, T/C [20]: 45.6%; viability, T/C [21]: 41.8%; viability, T/C [22]: 29%; viability, T/C [23]: 22.4%; viability, T/C [24]: 2.96%; viability, T/C [25]: 44.9%; viability, T/C [26]: 38.3%; viability, T/C [27]: 26.9%; viability, T/C [28]: 23.4%; viability, T/C [29]: 23.7%; viability, T/C [30]: 7.06%
2 | Cc1sc2c(c1C)C(c1ccc(Cl)cc1)=NC(CC(=O)Nc1ccc(O)cc1)c1nnc(C)n1-2 (stereo not given) + CC[C@@]1(O)C(=O)OCc2c1cc1n(c2=O)Cc2cc3c(CN(C)C)c(O)ccc3nc2-1 | > 3000 | > 3000 | > 3000 | > 3000 | 550 | 105 | 111 | 106 | 107 | 94.4 | 84.2 | 114 | 118 | 109 | 97.8 | 88.5 | 100 | 105 | 102 | 94.4 | outcome [8]: inactive; viability, T/C [17]: 89.6%; viability, T/C [18]: 77.4%; viability, T/C [19]: 64.2%; viability, T/C [20]: 71.7%; viability, T/C [21]: 77.2%; viability, T/C [22]: 71.2%; viability, T/C [23]: 66.9%; viability, T/C [24]: 58.8%; viability, T/C [25]: 52.1%; viability, T/C [26]: 55.2%; viability, T/C [27]: 58.7%; viability, T/C [28]: 55.3%; viability, T/C [29]: 44.5%; viability, T/C [30]: 33.7%
